Experimental data: ChEMBL document CHEMBL1125942, “A potent, simple derivative of an analog of the CC-1065 alkylation subunit” (Bioorg Med Chem Lett, 1991)
Values after ≈ are worked out from the molar mass of the structure shown.

Experiments:
L1210 [1] = test: Concentration required for 50% cell growth inhibition against L1210 mouse lymphocytic leukemia; type: functional, cell-based
L1210 [2] = test: Compound was tested for relative inhibitory concentration required for 50% cell growth inhibition against L1210 mouse lymphocytic leukemia to untreated controls; type: functional

| IC50 (L1210 [1]) [ng/mL] | Relative IC50 (L1210 [2]) | SMILES |
| --- | --- | --- |
| 50 (≈ 168 nM) | 0.02 | CC(C)(C)OC(=O)N1CC2CC23C1=CC(=O)c1ccccc13 (racemic) |
| 2000 (≈ 10100 nM) | 0.0005 | OC1=CC2=NCC3CC23c2ccccc21 (racemic) |

The remaining lines, values behind:

| SMILES | IC50 (L1210 [1]) [ng/mL] | Relative IC50 (L1210 [2]) |
| --- | --- | --- |
| COc1c(O)c2c(c3cc(C(=O)N4CCc5c4c(O)c(OC)c4[nH]c(C(=O)N6C[C@H]7C[C@@]78C6=CC(=O)c6[nH]cc(C)c68)cc54)[nH]c13)CCN2C(N)=O [(+)-CC-1065] | 0.01 (≈ 0.0142 nM) | 100 |
| Cl.NNC(=O)N1CC(CCl)c2c1cc(O)c1ccccc21 (racemic) | 1 | 1 |
| CC(C)(C)OC(=O)NNC(=O)N1CC(CCl)c2c1cc(O)c1ccccc21 (racemic) | 100 (≈ 255 nM) | 0.01 |
